Source: paper PMC9833666, “Designing and identifying β-hairpin peptide macrocycles with antibiotic potential” (Science Advances, 2023)
Bridge positions count the residues as written; N and C are the ends. Peptide text beside a SMILES is read from it.

Tested on: Escherichia coli W3110
Format: cell-based
Settings: for Ec W3110 MIC MH: E. coli W3110, MH medium; for Ec W3110 MIC RPMI: E. coli W3110, RPMI medium

Row | SMILES | Ec W3110 MIC MH [µg/mL] | Ec W3110 MIC RPMI [µg/mL] | W3110 MIC MH [µg/mL] | W3110 MIC RPMI [µg/mL] | W3110 MIC [µg/mL]
1 | CC(C)C[C@@H]1NC(=O)CNC(=O)[C@H](CCCNC(=N)N)NC(=O)[C@H](CCCNC(=N)N)NC(=O)[C@H](CCCNC(=N)N)NC(=O)[C@H](CC(N)=O)NC(=O)[C@H](CC(N)=O)NC(=O)[C@H](CC(C)C)NC(=O)[C@H](CCCNC(=N)N)NC(=O)[C@H](C(C)C)NC(=O)[C@H](CCCNC(=N)N)NC(=O)[C@H](CC(C)C)NC(=O)[C@@H](N)CSSC[C@@H](C(=O)O)NC(=O)[C@H](C(C)C)NC(=O)[C@H](CCC(N)=O)NC(=O)[C@H](C(C)C)NC(=O)[C@H](CO)NC(=O)[C@H](C(C)C)NC(=O)[C@H](CCCCN)NC1=O [SySA-17] (H-CLRVRLNNRRRGLKVSVQVC-OH; disulfide 1-20; N-terminus and C-terminus assumed) | 64 | 32 | 64 | 32 | –
2 | CC[C@H](C)[C@@H]1NC(=O)[C@H](CCCNC(=N)N)NC(=O)[C@H](C(C)C)NC(=O)[C@@H](N)CSSC[C@@H](C(=O)O)NC(=O)[C@H](C(C)C)NC(=O)[C@H](CCC(N)=O)NC(=O)[C@H](C(C)C)NC(=O)[C@H](CO)NC(=O)[C@H](C(C)C)NC(=O)[C@H](CCCCN)NC(=O)[C@H](C(C)C)NC(=O)[C@H](CCCNC(=N)N)NC(=O)[C@H](CCCNC(=N)N)NC(=O)[C@H](CCCNC(=N)N)NC(=O)[C@H](CCCNC(=N)N)NC(=O)[C@H](CC(N)=O)NC(=O)[C@H](CC(N)=O)NC(=O)[C@H](C(C)C)NC(=O)[C@H](CCCNC(=N)N)NC1=O [SySA-62] (H-CVRIRVNNRRRRVKVSVQVC-OH; disulfide 1-20; N-terminus and C-terminus assumed) | 32 | 16 | 32 | 16 | –
3 | CC[C@H](C)[C@@H]1NC(=O)[C@H](CCCNC(=N)N)NC(=O)[C@H](C(C)C)NC(=O)[C@H](CCCNC(=N)N)NC(=O)[C@@H](N)CSSC[C@@H](C(=O)O)NC(=O)[C@H](CCC(=O)O)NC(=O)[C@H](C(C)C)NC(=O)[C@H](CCC(N)=O)NC(=O)[C@H](CC(C)C)NC(=O)[C@H](CCCCN)NC(=O)[C@H](CC(C)C)NC(=O)[C@H](CCCNC(=N)N)NC(=O)CNC(=O)[C@H](CO)NC(=O)[C@H](CCCNC(=N)N)NC(=O)[C@H](CC(N)=O)NC(=O)[C@H](CC(N)=O)NC(=O)[C@H](C(C)C)NC(=O)[C@H](CC(N)=O)NC1=O [SyRC-14] (H-CRVRINVNNRSGRLKLQVEC-OH; disulfide 1-20) | – | – | – | – | >256
4 | CC[C@H](C)[C@@H]1NC(=O)[C@H](CCCNC(=N)N)NC(=O)[C@H](C(C)C)NC(=O)[C@@H](N)CSSC[C@@H](C(=O)O)NC(=O)[C@H](C(C)C)NC(=O)[C@H](CCC(N)=O)NC(=O)[C@H](CC(C)C)NC(=O)[C@H](CO)NC(=O)[C@H](C(C)C)NC(=O)[C@H](CCCCN)NC(=O)[C@H](C(C)C)NC(=O)CNC(=O)[C@H](CO)NC(=O)[C@H](CCCNC(=N)N)NC(=O)[C@H](CCCNC(=N)N)NC(=O)[C@H](CC(N)=O)NC(=O)[C@H](CC(N)=O)NC(=O)[C@H](C(C)C)NC(=O)[C@H](CCCNC(=N)N)NC1=O [SySA-38] (H-CVRIRVNNRRSGVKVSLQVC-OH; disulfide 1-20; N-terminus and C-terminus assumed) | 256 | 8 | 256 | 8 | –
5 | CC(C)C[C@@H]1NC(=O)[C@H](CCC(=O)O)NC(=O)[C@H](CC(C)C)NC(=O)[C@H](CCCCN)NC(=O)[C@H](CC(C)C)NC(=O)[C@H](CCCNC(=N)N)NC(=O)[C@H](CCCNC(=N)N)NC(=O)CNC(=O)[C@H](CCCNC(=N)N)NC(=O)[C@H](CC(=O)O)NC(=O)[C@H](CC(=O)O)NC(=O)[C@H](C(C)C)NC(=O)[C@H](CC(N)=O)NC(=O)[C@H](C(C)C)NC(=O)[C@H](CCCCN)NC(=O)[C@H](C(C)C)NC(=O)[C@H](CCCNC(=N)N)NC(=O)[C@@H](N)CSSC[C@@H](C(=O)O)NC(=O)[C@H](CCC(N)=O)NC1=O [SyRC-15] (H-CRVKVNVDDRGRRLKLELQC-OH; disulfide 1-20) | – | – | – | – | >256
